Results: paper PMC3588144 (Molecular cancer therapeutics, 2012)

Key:
NCI-N87 xenograft = assay: HER2 overexpressing gastric NCI-N87 xenograft model; settings: 25 mg/kg i.v.; not statistically significant
436 cancer cell lines = assay type: cell-based, human
MV4-11 cells (FLT3-ITD) = assay type: cell-based, human; settings: 100 nmol/L for 3 hours
[1] = tolerability / maximum-tolerated dose; assay type: in vivo, mice; settings: for maximum observed body weight loss: 14 days, male Balb/C nude mice
[2] = pharmacokinetics after a single oral dose; set-up: species or system mice; settings: mouse, in vivo
[3] = system: pS6 and pAkt in COLO-205 tumor tissue; assay: pharmacodynamic markers in COLO-205 tumors; assay type: in vivo, mice; settings: 25 mg/kg, 1h after the last dose on day 17
[4] = system: pAkt(S473) and pS6(S240/244) in PC3 tumor tissue; settings: mouse, in vivo

O=c1[nH]cc(F)c(=O)[nH]1 [5-FU, 5-fluorouracil]
tumor growth inhibition (NCI-N87 xenograft): 32%

CN(C)C/C=C/C(=O)Nc1cc2c(Nc3ccc(F)c(Cl)c3)ncnc2cc1O[C@H]1CCOC1 [BIBW2992]
sensitivity of ERBB2-amplified cells with coincident PIK3CA mutations (436 cancer cell lines): did not observe increased sensitivity

CO[C@H]1C[C@@H]2CC[C@@H](C)[C@@](O)(O2)C(=O)C(=O)N2CCCC[C@H]2C(=O)O[C@H]([C@H](C)C[C@@H]2CC[C@@H](OCCO)[C@H](OC)C2)CC(=O)[C@H](C)/C=C(\C)[C@@H](O)[C@@H](OC)C(=O)[C@H](C)C[C@H](C)/C=C/C=C/C=C/1C [Everolimus, everolimus, reference compound]
tumor growth inhibition (TGI) (PC3 xenograft; 5 mg/kg p.o. daily, 28 days): 133%
inhibition of phosphorylation of Akt (MV4-11 cells (FLT3-ITD)): not able to inhibit

Cc1nc2c(-c3cnc(N)nc3)nc(N3CCOCC3)nc2n1C(C)C [VS-5584, 5-(9-isopropyl-8-methyl-2-morpholin-4-yl-9H-purin-6-yl)-pyrimidin-2-ylamine]
maximum observed body weight loss ([1]; 25 mg/kg once daily, data not shown): 3.1%
maximum observed body weight loss ([1]; 35 mg/kg once daily, data not shown): 13.9%
peripheral blood cell counts ([1]; 25 and 35 mg/kg, data not shown): remained within normal levels without significant changes
tolerability of a single dose ([1]; single dose up to 100 mg/kg): well tolerated
weight loss (mean) (PC3 xenograft; 11 and 25 mg/kg, day 27): 4.7%
Tmax [2]: 0.9 h
half-life [2]: 10 h
reduction of pAkt in tumor [3]: 85%
reduction of pS6 in tumor [3]: 95%
pAkt(S473) blocked [4]: ≥ 90%
pS6(S240/244) blocked [4]: ≥ 90%
